Assay results published in ChEMBL document CHEMBL3244348, “Antiallergic agents. Xanthone-2,7-dicarboxylic acid derivatives” (1977).

Tested on: Rattus norvegicus
Test: Antiallergic activity in homocytotropic antiovalbumin antiserum-injected Sprague-Dawley rat assessed as inhibition of passive cutaneous anaphylaxis wheal reaction at 100 mg/kg, po administered 1 hr prior to ovalbumin challenge measured 20 mins after antigen challenge
Format: functional

| Compound | inhibition in vivo at 100 mg/kg |
| --- | --- |
| O=C(O)c1ccc2oc3ccc(C(=O)O)cc3c(=O)c2c1 | 1% |
| CCOC(=O)c1ccc2oc3ccc(C(=O)OCC)cc3c(=O)c2c1 | 8% |
| NC(=O)c1ccc2oc3ccc(C(N)=O)cc3c(=O)c2c1 | 34% |
| CNC(=O)c1ccc2oc3ccc(C(=O)NC)cc3c(=O)c2c1 | 19% |
| CCCNC(=O)c1ccc2oc3ccc(C(=O)NCCC)cc3c(=O)c2c1 | 19% |
| COCCOCCCNC(=O)c1ccc2oc3ccc(C(=O)NCCCOCCOC)cc3c(=O)c2c1 | 19% |
| CN(C)C(=O)c1ccc2oc3ccc(C(=O)N(C)C)cc3c(=O)c2c1 | 69% |
| CCN(CC)C(=O)c1ccc2oc3ccc(C(=O)N(CC)CC)cc3c(=O)c2c1 | 53% |
| O=C(c1ccc2oc3ccc(C(=O)N(C4CCCCC4)C4CCCCC4)cc3c(=O)c2c1)N(C1CCCCC1)C1CCCCC1 | 42% |
| C=CCN(CC=C)C(=O)c1ccc2oc3ccc(C(=O)N(CC=C)CC=C)cc3c(=O)c2c1 | 51% |
| O=C(c1ccc2oc3ccc(C(=O)N4CCCCC4)cc3c(=O)c2c1)N1CCCCC1 | 57% |
| O=C(c1ccc2oc3ccc(C(=O)N4CC5CCC(CC5)C4)cc3c(=O)c2c1)N1CC2CCC(CC2)C1 | 48% |
| O=C(c1ccc2oc3ccc(C(=O)N4CCOCC4)cc3c(=O)c2c1)N1CCOCC1 | 42% |
